Values of other authors in PubChem BioAssay AID1259409 (Chemical Carcinogenesis Research Information System (CCRIS), 2018).

System: rodent chemically induced tumor inhibition, incidence and multiplicity
Test: CCRIS tumor inhibitor studies
Conditions: Species: MOUSE

## C/C(=C\c1ccc(C(=O)O)cc1)c1ccc2c(c1)C(C)(C)CCS2
Carcinogen: 7,12-DIMETHYLBENZ[A]ANTHRACENE, 57-97-6, Dose [Inhibitor]: 1.7 NMOL IN 0.2 ML ACETONE 1 HR PRIOR TO EACH PROMOTER DOSE FOR 12 WK (STUDY DURATION: 14 WK), Route [Inhibitor]: DERMAL, Strain/Sex: SENCAR/FEMALE, Target Tissue: Type of Lesion: SKIN: PAPILLOMA, Dose [Carcinogen]: 200 NMOL IN 0.2 ML ACETONE ONCE, Promoter: 12-O-TETRADECANOYLPHORBOL-13-ACETATE, 16561-29-8
  tumour outcome (control, treated, inhibition, significance): 100%, 100%, 0%, not calculated
Carcinogen: 7,12-DIMETHYLBENZ[A]ANTHRACENE, 57-97-6, Dose [Inhibitor]: 1.7 NMOL IN 0.2 ML ACETONE 1 HR PRIOR TO EACH PROMOTER DOSE FOR 20 WK (STUDY DURATION: 22 WK), Route [Inhibitor]: DERMAL, Strain/Sex: CD-1/FEMALE, Target Tissue: Type of Lesion: SKIN: PAPILLOMA, Dose [Carcinogen]: 200 NMOL IN 0.2 ML ACETONE ONCE, Promoter: 12-O-TETRADECANOYLPHORBOL-13-ACETATE, 16561-29-8
  tumour outcome (control, treated, inhibition, significance): 94%, 93%, 1%, not calculated
Carcinogen: 7,12-DIMETHYLBENZ[A]ANTHRACENE, 57-97-6, Dose [Inhibitor]: 17 NMOL IN 0.2 ML ACETONE 1 HR PRIOR TO EACH PROMOTER DOSE FOR 12 WK (STUDY DURATION: 14 WK), Route [Inhibitor]: DERMAL, Strain/Sex: SENCAR/FEMALE, Target Tissue: Type of Lesion: SKIN: PAPILLOMA, Dose [Carcinogen]: 200 NMOL IN 0.2 ML ACETONE ONCE, Promoter: 12-O-TETRADECANOYLPHORBOL-13-ACETATE, 16561-29-8
  tumour outcome (control, treated, inhibition, significance): 100%, 90%, 10%, not calculated
Carcinogen: 7,12-DIMETHYLBENZ[A]ANTHRACENE, 57-97-6, Dose [Inhibitor]: 17 NMOL IN 0.2 ML ACETONE 1 HR PRIOR TO EACH PROMOTER DOSE FOR 20 WK (STUDY DURATION: 22 WK), Route [Inhibitor]: DERMAL, Strain/Sex: CD-1/FEMALE, Target Tissue: Type of Lesion: SKIN: PAPILLOMA, Dose [Carcinogen]: 200 NMOL IN 0.2 ML ACETONE ONCE, Promoter: 12-O-TETRADECANOYLPHORBOL-13-ACETATE, 16561-29-8
  tumour outcome (control, treated, inhibition, significance): 94%, 38%, 60%, not calculated
Carcinogen: 7,12-DIMETHYLBENZ[A]ANTHRACENE, 57-97-6, Dose [Inhibitor]: 170 NMOL IN 0.2 ML ACETONE 1 HR PRIOR TO EACH PROMOTER DOSE FOR 12 WK (STUDY DURATION: 14 WK), Route [Inhibitor]: DERMAL, Strain/Sex: SENCAR/FEMALE, Target Tissue: Type of Lesion: SKIN: PAPILLOMA, Dose [Carcinogen]: 200 NMOL IN 0.2 ML ACETONE ONCE, Promoter: 12-O-TETRADECANOYLPHORBOL-13-ACETATE, 16561-29-8
  tumour outcome (control, treated, inhibition, significance): 100%, 38%, 62%, not calculated
Carcinogen: 7,12-DIMETHYLBENZ[A]ANTHRACENE, 57-97-6, Dose [Inhibitor]: 170 NMOL IN 0.2 ML ACETONE 1 HR PRIOR TO EACH PROMOTER DOSE FOR 20 WK (STUDY DURATION: 22 WK), Route [Inhibitor]: DERMAL, Strain/Sex: CD-1/FEMALE, Target Tissue: Type of Lesion: SKIN: PAPILLOMA, Dose [Carcinogen]: 200 NMOL IN 0.2 ML ACETONE ONCE, Promoter: 12-O-TETRADECANOYLPHORBOL-13-ACETATE, 16561-29-8
  tumour outcome (control, treated, inhibition, significance): 94%, 24%, 74%, not calculated

## CC1(C)O[C@@H]2C[C@H]3[C@@H]4CCC5=CC(=O)C=C[C@]5(C)[C@@]4(F)[C@@H](O)C[C@]3(C)[C@]2(C(=O)CO)O1
Carcinogen: UVB IRRADIATION, Dose [Inhibitor]: 14.4 NMOL IN 0.1 ML ACETONE 5/WK FOR 4 WK IMMEDIATELY AFTER EACH UVB EXPOSURE FOLLOWED BY 48 WK OBSERVATION PERIOD (STUD, Route [Inhibitor]: DERMAL, Strain/Sex: SKH/HRL/FEMALE, Target Tissue: Type of Lesion: SKIN: TUMOR, Dose [Carcinogen]: 0.3 KJ/SQM ON FIRST DAY, 0.6 KJ/SQM ON SECOND DAY AND ALL SUBSEQUENT DAYS 0.9 KJ/SQM ADMINISTERED 5 D/WK FOR 4 WK, Promoter: NONE USED
  tumour outcome (control, treated, inhibition, significance): 8/27 (30%), 4/27 (15%), 50%, not significant

## CC(C)(C)c1cc(-c2cc(C(C)(C)C)c(O)c(C(C)(C)C)c2)cc(C(C)(C)C)c1O
Carcinogen: BENZO[A]PYRENE, 50-32-8, Dose [Inhibitor]: 0.03 MMOL/G OF DIET DAILY STARTING 7 D BEFORE AND CONTINUING THROUGH 3 D AFTER CARCINOGEN TREATMENT FOLLOWED BY OBSERVAT, Route [Inhibitor]: ORAL, Strain/Sex: ICR/FEMALE, Target Tissue: Type of Lesion: FORESTOMACH: NEOPLASM, Dose [Carcinogen]: 1 MG IN 0.2 ML CORN OIL 2/WK FOR 4 WK, Promoter: NONE USED
  tumour outcome (control, treated, inhibition, significance): 90%, 89%, 1%, not significant
